The test system of one series is HaCaT cells. Briefly: MTT cytotoxicity in HaCaT cells. The series is classed as cell-based, human. The note with it: for toxicity to HaCaT cells at tested concentration and exposure time: concentrations used in invasion studies (Fig. S1). How it is done:
MTT (3-(4,5-dimethylthiazol-2-yl)-2,5-diphenyl tetrazolium bromide) assay was employed to analyze the cytotoxicity of peptides and geldanamycin to the cells. 5 × 10^5 cells were seeded in a 96 flat bottom well plate and incubated for 2.5 or 24 h at 37°C with 5% CO2. The cells were then treated with increasing concentration (0 to 200 µM) of peptides or geldanamycin for 24 h. After the incubation, 10 μl of the MTT labelling reagent is added to each well to attain a final concentration 0.5 mg/ml, followed by 4 h incubation. Metabolically active cells convert the yellow tetrazolium salt to purple formazan crystals, which were solubilized using the solubilization solution (DMSO) and measured for absorbance at λmax/λref–570/690 nm (Saising et al. [2018]).

The test system of series [1] is S. aureus USA300 infected PBMCs. As to the kind of experiment: Cytokine release of S. aureus USA300 infected PBMCs (ELISA). The series is classed as cell-based, human. The note with it: L15 20 µM, L13 30 µM, geldanamycin 5 µM; 20 h; n = 5; vs unstimulated infected PBMCs.
The next series has as its system Staphylococcus aureus. As to the kind of experiment: Hemolysin activity on sheep blood agar. The series is classed as cell-based. To be noted: impregnated discs on sheep blood agar, 37°C overnight. As for the experimental part: About 6 mm Whatman empty Antibiotic Assay Discs were impregnated with L15 or L13 and allowed to dry. Once dried, the discs were placed on sheep blood agar plates, inoculated with S. aureus and incubated at 37°C overnight. The halo obtained was measured and compared.

Series [2] relates to total ATPase activity in HaCaT cells. As to the kind of experiment: Total ATPase activity in HaCaT cells. The series is classed as cell-based, human. To be noted: Fig. S4.
For series [3], the system named is F-actin levels in N/TERT-1 cells. As to the kind of experiment: F-actin measurement (ActinGreen 488 fluorescence) in N/TERT-1 cells. To be noted: L15 20 µM, L13 30 µM, geldanamycin 5 µM; 1.5 h; relative to control. The series is classed as cell-based, human. How it is done: About 5 × 10^4 cells were seeded in black flat bottom 96 well cell culture microplate (Greiner, Germany) and incubated overnight. The cells were then incubated with peptides or geldanamycin for 1.5 h. After incubation, the cells were washed, permeabilised with 0.1% (v/v) Triton X-100 and stained with ActinGreen™ 488 ReadyProbes® (Thermo Fischer, Germany) for 30 min. After the staining, the cells were washed and measure for its fluorescence at Excitation/Emission: 495/518 nm (Luqman et al. [2020]).

The test system of series [4] is S. aureus USA300 invasion into N/TERT-1 cells. As to the kind of experiment: S. aureus USA300 invasion into N/TERT-1 keratinocytes. To be noted: pretreatment with L15 20 µM, L13 30 µM, geldanamycin 5 µM or α-Hsp90α antibody. Type of series: cell-based, human. How it is done:
The invasion protocol was adapted from our previous papers (Nguyen et al. [2015], Tribelli et al. [2020]). About 5 × 10^5 Keratinocytes were seeded in a 24 well plate (Greiner, Frickenhausen, Germany) to attain a monolayer of ∼10^6 cells/well. Staphylococcusaureus was grown overnight at 37°C, centrifuged and suspended in invasion medium (DMEM with 10% FBS for HaCaT and K-SFM for NTERT-1 cells). The adherent keratinocytes were washed with PBS and supplemented with invasion medium followed by treatment with 20 µM of L15, 30 µM of L13, or 5 µM geldanamycin (Sigma-Aldrich, Germany) or monoclonal antibodies specific against Hsp90α (α‐Hsp90α, Abcam) for 1 h. After 1 h, 100 µl of bacterial suspension was added to each well to attain a MOI (multiplicity of infection) of 30 and incubated with cells for 1.5 h. Subsequently, the extracellular bacteria were killed with treatment of 2.5 μg/ml lysostaphin (Sigma-Aldrich, Germany) for 1.5 h. The cells were then washed, lysed, mechanically detached by scraping, diluted, and enumerated on TSA (Tryptic Soy Agar) plates to quantify the intracellular bacteria.

For another series, the target named is T1, Lpl1 (Staphylococcus aureus, UniProt Q2FJK4).
T1 construct: made in house
T1 sequence (Q2FJK4 23-257): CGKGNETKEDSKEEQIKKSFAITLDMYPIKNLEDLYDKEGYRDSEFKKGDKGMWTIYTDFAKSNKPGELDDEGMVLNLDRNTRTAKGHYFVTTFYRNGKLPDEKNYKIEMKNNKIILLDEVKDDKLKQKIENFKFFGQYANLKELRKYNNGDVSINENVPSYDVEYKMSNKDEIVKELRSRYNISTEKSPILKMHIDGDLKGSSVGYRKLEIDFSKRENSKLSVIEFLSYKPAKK
Briefly: Dot blot / immunoblot interaction with Lpl1-his. The series is classed as binding. To be noted: 2 µg blotted, anti-6X His immunodetection. How it is done:
(§1) Two µg of each peptide was blotted (dot blot) directly on PDV nitrocellulose membrane and blocked with ROTI®Block (Carl Roth, Germany). After washing, the membrane was then incubated with 20 μg of recombinant Hsp90α (Abcam)/Lpl1-his protein at 4°C overnight. In case of interaction studies with Hsp90α, α-Hsp90α (produced in mouse, Abcam) was used as the primary antibody and for interaction studies with Lpl1-his, Anti-6X His tag antibody (also produced in mouse, Sigma-Aldrich, Germany) was used. Alkaline phosphatase conjugated goat-α-mouse IgG (Sigma-Aldrich, Germany) served as the secondary antibody. Detection was done using BCIP®/NBT solution (Sigma, Germany). Lpl1-his was isolated and purified as described in our previous paper (Tribelli et al. [2020]).

A short description of a further series: Solubility in PBS. The note with it: qualitative statement. Type of series: physicochemical.
The test system of series [5] is S. aureus Newman. As to the kind of experiment: Galleria mellonella larvae infection model, S. aureus Newman. The note with it: peptides 60 mg/kg, vancomycin 20 mg/kg, injected 1 h before 10^6 cfu; 37°C. Type of series: in vivo. As for the experimental part: Galleria mellonella larvae, purchased from Feeders & more GmbH, Germany, were sorted based on weight and used within one week. Ten larvae per group with weight average of 500 mg/larvae were injected with bacteria and/or peptides on its last proleg using a BD insulin syringe. The dosage used for the experiment were 60 mg/kg for peptides, 5 mg/kg of geldanamycin and 20 mg/kg for vancomycin. Each larva was injected with 10 µl of L15 (last left proleg) 1 h before administration of 10^6 cfu S. aureus (last right proleg). The larvae were maintained at 37°C and observed for mortality every day over the course of 5 days.

In the next series the target is T2, Hsp90α (Homo sapiens, UniProt P07900).
T2 construct: purchased Abcam
Type of series: binding. The note with it: dot blot, 2 µg blotted on membrane, 20 µg recombinant Hsp90α at 4°C overnight, α-Hsp90α immunodetection. How it is done:
as §1

The test system of series [6] is S. aureus Newman. As to the kind of experiment: Mouse S. aureus Newman bacteremia model. Type of series: in vivo, NMRI mice. As for the experimental part:
About 8- to 10-week-old female NMRI mice were purchased from Envigo (Venray, the Netherlands) and stored under standard temperature, light, and nutrition conditions in the animal facility of the Department of Rheumatology and Inflammation Research, University of Gothenburg. […] To study the effect of L15 on S. aureus bacteremia two separate experiments were performed. The mice were treated intraperitoneally with L15 (10 mg/kg) in 200 µl of PBS every 12 h, starting 2 h before inoculation with bacteria and continuing until the animals were sacrificed. Mice were challenged with septic dose of 2 × 10^6 CFU/mouse of S aureus Newman. To induce the S. aureus systemic infection in NMRI mice, 0.2 ml of S. aureus Newman suspension was inoculated intravenously into the tail vein of the mice. During the course of the experiments, the mice were regularly weighed until the mice were sacrificed. After sacrificing the mice at day 7, kidneys from mice were aseptically removed, homogenised, serially diluted with PBS and enumerated to quantify the bacterial CFUs.

Where no end group is shown, it is not given here.

Turning to GHYFVTTFY [L13], the “percentage of viable cells, HaCaT, 1 µM” value with HaCaT cells (MTT, 24 h, 1 µM) is on record as 103.05 ± 10.06%. Also, the “percentage of viable cells, HaCaT, 200 µM” value in the series with HaCaT cells (MTT, 24 h, 200 µM) came out at 83.79 ± 11.13%. Further, the “toxicity to HaCaT cells at tested concentration and exposure time” value in the series with HaCaT cells is given as “neither inhibit the viability of host cells”. For the same sequence, the “IL-6 production of infected PBMCs” value in [1] is “significantly increased”. Also, the “effect on hemolysis activity of S. aureus” value in the series on Staphylococcus aureus was “nor was hemolysis activity markedly affected”. Further, the “effect on total ATPase activity in HaCaT cells” value in series [2] is “could not detect any significant inhibition”. Also, the “relative F-actin content in N/TERT-1 cells” value in [3] was 0.81 ± 0.03. Besides, the “invasion of S. aureus USA300 into N/TERT-1 cells” value in [4] is given as “inhibits the invasion”. In addition, the “direct interaction with Lpl1” value on Lpl1 is on record as “interact directly”. In addition, the “solubility in PBS” value in the series “Solubility in PBS” is reported as “poor solubility in PBS”. Moreover, the “larvae surviving on day 5, S. aureus Newman” value in the series on S. aureus Newman [5] is reported as 46%. For the same sequence, on Hsp90α, the “Interaction with Hsp90α” value is on record as “Yes”.
For TAKGHYFVTTFYRNG [L15], the “toxicity to HaCaT cells at tested concentration and exposure time” value in the series on HaCaT cells is on record as “neither inhibit the viability of host cells”. In series [1], the “IL-6 production of infected PBMCs” value is listed as “significantly increased”. Also, the “effect on hemolysis activity of S. aureus” value with Staphylococcus aureus is reported as “nor was hemolysis activity markedly affected”. The “effect on total ATPase activity in HaCaT cells” value in series [2] was “could not detect any significant inhibition”. For the same sequence, the “relative F-actin content in N/TERT-1 cells” value in series [3] is reported as 0.9 ± 0.02. Also, the “invasion of S. aureus USA300 into N/TERT-1 cells” value in series [4] is “inhibits the invasion”. Also, on Lpl1, the “direct interaction with Lpl1” value is “interact directly”. The “solubility in PBS” value in the series “Solubility in PBS” is “better soluble”. For the same sequence, the “survival during the 7-day observation period” value in the series on S. aureus Newman [6] (L15 10 mg/kg i.p. every 12 h, 40% of the control group died) is recorded as “all mice treated with L15 survived”. The “bacterial load in the kidneys” value in the series on S. aureus Newman [6] (L15 10 mg/kg i.p. every 12 h, day 7, vs PBS control) is on record as “No significant difference”. The “weight loss of infected mice” value with S. aureus Newman [6] (L15 10 mg/kg i.p. every 12 h from 2 h before i.v. 2 × 10^6 CFU/mouse, 7 days, vs PBS control) was “significantly reduced”. In addition, in the series with S. aureus Newman [6] (mouse bacteremia model), the “reduction of lethality of S. aureus in the mouse model” value is “about 40%”. The “larvae surviving on day 5, S. aureus Newman” value in the series with S. aureus Newman [5] was determined as 36%. Also, the “Interaction with Hsp90α” value on Hsp90α was “Yes”.

The values above are taken from PMC10117725, “From an Hsp90 - binding protein to a peptide drug” (microLife, 2022).
